Data from paper PMC8962335, “In Vivo Evaluation of ECP Peptide Analogues for the Treatment of Acinetobacter baumannii Infection” (Biomedicines, 2022).
Converted amounts (≈) assume the structure as drawn. “And” between values parts separate entries of the source, which are not always exact repeats. Equal entries are not always repeated. Where a SMILES comes first, the peptide text is derived from it. Where no end group is shown, it is not given here.

How the values were obtained:
[1] = Tolerance study of peptides in mouse (Up and Down, main study, extra groups); assay type: in vivo, Balb/c mice; conditions: for clinical score: 30 mg/kg i.p., within 30 min; for clinical score / MTD: Up and Down assay; for MTD: in vivo, ip, one single dose, i.p., 1 mouse per peptide, read-out: maximum tolerated dose; for clinical signs after a single dose (main study): single i.p. dose: 20 mg/kg ECPep-D, 25 mg/kg ECPep-2D-Orn, all mice
Protocol: Initially, the “Up and Down” protocol was followed to determine the maximum lethal dose with some modifications. Briefly, one mouse was taken per peptide and increasing doses of the peptide were injected through the intraperitoneal (i.p.) route every 48 h, and the concentration at which the mouse had severe clinical symptoms or died was determined (Figure 1a).
Figure 1 Toxicity study plans. (a) “Up and Down” protocol: 1 mouse was injected, starting at a very low peptide dose and observed at 48 h intervals. […] (b) Main study: mice were divided into groups randomly; 1 as well as 2 peptide doses below the lethal dose from the “Up and Down” assay was given two times per day for 3 days (the protocol was readjusted in case of emergency owing to ethical principles, as detailed in the results section and Table S1). An extra group is for the vehicle. (c) Last study: Peptide was tested in smaller groups at lower doses depending on the results obtained from the main study.
Once the lethal concentration had been determined, we continued with the “main study” (Figure 1b). Two groups of 6 female mice were used at two different concentrations of both peptides, one and two concentrations below the maximum considered either by lethality or by clinical signs. The toxicity was further verified by mimicking the doses and frequency foreseen in the previous study, i.e., two doses per day for 3 days as the initial plan.
There was also an extra group to confirm the non-toxicity of the vehicle. For extra caution, some additional doses were applied to confirm the safety dose in case of repeated injections (Figure 1c).
Body weight (BW, g) of mice was measured before every injection and % BW gain was calculated. % BW gain = (new BW − initial BW)/initial BW × 100%(1)
In the tolerance study, for the “Up and Down” assay, the BW was recorded twice on the administration day and, for the “main study”, it was measured every day at the first 3 days and then at some selected days until the 16th day, when the monitoring was finished. In both efficacy assays, BW was recorded once a day but on the first day (Day 0), a second measure was conducted at 8 h.
The clinical symptoms were assessed through a scoring system, which contains 9 items, including changes of body weight, behavior, breathing, skin, hair, eyes and gastrointestinal status (see full list at Table S2). The score for each item increases from 0 to 3 according to the severe levels, up to a total of 27. During the study, when an animal obtained a score of 3 in any of the parameters assessed with a maximum score of 3, euthanasia was carried out to apply the endpoint criteria. Euthanasia would also be practiced if the sum of several parameters that are less than 3 separately was ≥ 7.
In the tolerance study, the clinical score was recorded at about 10 min, 30 min, 1 h, 2 h, 4 h, 7 h, 24 h and 48 h after injecting the peptides for the “Up and Down” assay and in the main study, the clinical score were only monitored when the BW was measured. During the efficacy assay, the clinical score was recorded every 2–3 h on Day 0 and then twice every day.

E. coli = assay type: cell-based, Escherichia coli; conditions: 24 h
From the text: (§1) A. baumannii strain (CECT 452, Valencia, Spain, ATCC 15308, Manassas, VA, USA) and Pseudomonas aeruginosa (P. aeruginosa) strain (CECT 4122, Valencia, Spain, ATCC 15692, Manassas, VA, USA) were from the Colección Española de Cultivos Tipo (CECT, Valencia, Spain). The Escherichia coli (E. coli) BL21 (DE3) strain was from Novagen (Darmstadt, Germany). MRC-5 cells were from the American Type Culture Collection (ATCC, Manassas, VA, USA) and HEK293T cell line was kindly provided by Dr. Raquel Pequerul (UAB, Barcelona, Spain).
(§2) The MIC is defined as the lowest concentration of one reagent to prevent visible growth of bacteria. The MIC determination was followed by the protocol described previously. Briefly, bacteria in exponential growth were used to prepare a suspension in MHB with the approximate number of 5 × 10^5 CFU/mL. Next, an aliquot of 90 μL of bacteria suspension was added into each well of the 96-well polypropylene plate. Immediately, 10 μL of peptide diluted by 0.01% acetic acid was added to the corresponding well to have a final concentration ranging from 20 to 0.16 μM. The plate was incubated for 24 h at 37 °C, 100 rpm. The presence or absence of bacterial growth was visually inspected and confirmed by reading OD600 with Tecan Microplate Reader Spark®. Each test was performed in triplicate.

in vitro = conditions: human, MRC-5 cells; for CC50 at 24 h: LD50 (MRC-5) 24 h; for CC50 at 48 h: LD50 (MRC-5) 48 h
Protocol: (§3) Cytotoxicity was measured for the MRC-5 and HEK293T cell lines by MTT assay. Cells were grown in 5% CO2 at 37 °C with MRC-5 cell line maintained in MEMα and HEK293T in DMEM/F-12 media, both of which were supplemented with 10% FBS. The cells were passaged in 25 cm^2 or 75 cm^2 flasks to prepare 96-well plates with 3 × 10^4 cells/well, which were incubated overnight. Next, serial dilutions of ECPep-D and ECPep-2D-Orn were added to have a final concentration ranging from 100 to 0.78 μM (375 μg/mL to 3 μg/mL) and colistin was added at final concentrations ranging from 300 to 2.34 μM (380 μg/mL to 3 μg/mL) in corresponding wells. After incubation to the specified time, the medium of the plate was replaced by fresh medium containing 0.5 mg/mL MTT solution and the mixture was incubated for 2.5 h in 5% CO2 at 37 °C. The medium was then removed, and formazan was dissolved by adding DMSO. The optical density (OD) was recorded by using a Victor^3 plate reader (PerkinElmer, Waltham, MA, USA) set at 540 nm and 620 nm as a reference. Each test was performed in triplicate.

A. baumannii = assay type: cell-based, Acinetobacter baumannii; conditions: 24 h
From the text: as §1, §2

P. aeruginosa = assay type: cell-based, Pseudomonas aeruginosa; conditions: 24 h
From the text: as §1, §2

[2] = human serum in vitro; cited from earlier work
MRC-5 cells = experiment: Cytotoxicity assay (MTT); conditions: all the assayed time range (up to 48 h), highest concentration 100 μM
Protocol: as §3

HEK293T cells = conditions: 48 h
Protocol: as §3

Compound	clinical score [1]	MTD [1] [mg/kg]	clinical signs after a single dose (main study) [1]	MIC E. coli (E. coli) [µM]	CC50 at 24 h (in vitro)	CC50 at 48 h (in vitro)	MIC A. baumannii (A. baumannii) [µM]	MIC P. aeruginosa (P. aeruginosa) [µM]	half-life time in human serum [2] [h]	toxicity for MRC-5 at the highest tested concentration (MRC-5 cells)	IC50 (HEK293T cells) [µM]	CC50 at 4 h (in vitro; LD50 (MRC-5) 4 h)
CC[C@@H](C)[C@@H](NC(=O)[C@@H](C)NC(=O)[C@@H](CCCNC(=N)N)NC(=O)[C@@H](CCSC)NC(=O)[C@@H](C)NC(=O)[C@H](NC(=O)[C@H](NC(=O)[C@@H](CCCNC(=N)N)NC(=O)[C@H]1CCCN1C(=O)[C@@H](CO)NC(=O)[C@H](NC(=O)[C@@H](Cc1c[nH]cn1)NC(=O)[C@@H](CCC(N)=O)NC(=O)[C@H](NC(=O)[C@@H](C)NC(=O)[C@@H](Cc1ccccc1)NC(=O)[C@@H](Cc1c[nH]c2ccccc12)NC(=O)[C@@H](CCC(N)=O)NC(=O)[C@@H](C)NC(=O)[C@@H](CCCNC(=N)N)NC(=O)[C@H](NC(=O)[C@@H](Cc1ccccc1)NC(=O)[C@H]1CCCN1C(=O)[C@H](N)CCCNC(=N)N)[C@H](C)O)[C@H](C)CC)[C@H](C)CC)[C@H](C)O)[C@H](C)CC)C(=O)N[C@H](CC(N)=O)C(=O)N[C@H](CC(N)=O)C(=O)N[C@H](Cc1ccc(O)cc1)C(=O)N[C@H](CCCNC(=N)N)C(=O)N[C@H](Cc1c[nH]c2ccccc12)C(=O)N[C@H](CCCNC(=N)N)C(N)=O [ECPep-D] (HELM PEPTIDE1{[dR].[dP].[dF].[dT].[dR].[dA].[dQ].[dW].[dF].[dA].[dI].[dQ].[dH].[dI].[dS].[dP].[dR].[dT].[dI].[dA].[dM].[dR].[dA].[dI].[dN].[dN].[dY].[dR].[dW].[dR].[am]}$$$$V2.0)	over 6	20	did not cause any obvious clinical signs	10 (≈ 37.6 µg/mL)	164 ± 33.2 µg/mL (≈ 43.5 µM)	88.4 ± 17.8 µg/mL (≈ 23.5 µM)	10 (≈ 37.6 µg/mL)	10 (≈ 37.6 µg/mL)	–	–	–	–
CC[C@H](C)[C@H](NC(=O)[C@H](C)NC(=O)[C@H](CCCN)NC(=O)[C@H](CCSC)NC(=O)[C@H](C)NC(=O)[C@@H](NC(=O)[C@@H](NC(=O)[C@H](CCCN)NC(=O)[C@@H]1CCCN1C(=O)[C@H](CO)NC(=O)[C@@H](NC(=O)[C@H](Cc1c[nH]cn1)NC(=O)[C@H](CCC(N)=O)NC(=O)[C@@H](NC(=O)[C@H](C)NC(=O)[C@H](Cc1ccccc1)NC(=O)[C@H](Cc1c[nH]c2ccccc12)NC(=O)[C@H](CCC(N)=O)NC(=O)[C@H](C)NC(=O)[C@H](CCCN)NC(=O)[C@@H](NC(=O)[C@H](Cc1ccccc1)NC(=O)[C@H]1CCCN1C(=O)[C@@H](N)CCCN)[C@@H](C)O)[C@@H](C)CC)[C@@H](C)CC)[C@@H](C)O)[C@@H](C)CC)C(=O)N[C@@H](CC(N)=O)C(=O)N[C@@H](CC(N)=O)C(=O)N[C@@H](Cc1ccc(O)cc1)C(=O)N[C@@H](CCCN)C(=O)N[C@@H](Cc1c[nH]c2ccccc12)C(=O)N[C@@H](CCCN)C(N)=O [ECPep-2D-Orn] (HELM PEPTIDE1{[Orn].[dP].F.T.[Orn].A.Q.W.F.A.I.Q.H.I.S.P.[Orn].T.I.A.M.[Orn].A.I.N.N.Y.[Orn].W.[Orn].[am]}$$$$V2.0)	over 6	25	did not cause any obvious clinical signs	>20	> 100 µM and > 351 µg/mL	> 100 µM and > 351 µg/mL	5 (≈ 17.5 µg/mL)	>20	> 8	no toxicity was observed	> 100	–
RPFTRAQWFAIQHISPRTIAMRAINNYRWR-NH2 [ECPep-L]	–	–	–	10	–	–	10	10	0.2	–	–	276 µM and > 1000 µg/mL
